Patent publication US10611740B2, “Aryl dihydro-2H-benzo[b][1,4]oxazine sulfonamide and related compounds for use as agonists of RORγ and the treatment of disease” (Lycera Corporation, priority 2015, dated 2020)

Target: T1, RORγ-LBD (Homo sapiens, UniProt P51449)
T1 construct: made in house; host or cells: SF9 cells (baculovirus)
T1 sequence (P51449 269-508 limits assumed): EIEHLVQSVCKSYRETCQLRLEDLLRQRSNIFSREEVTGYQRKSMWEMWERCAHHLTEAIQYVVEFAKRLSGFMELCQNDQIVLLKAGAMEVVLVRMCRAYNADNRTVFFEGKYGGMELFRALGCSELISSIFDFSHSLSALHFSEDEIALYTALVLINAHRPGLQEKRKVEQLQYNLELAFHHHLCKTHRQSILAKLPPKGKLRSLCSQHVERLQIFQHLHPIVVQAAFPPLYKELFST
Assay: RORγ-Ligand Binding Domain (LBD) TR-FRET Assay;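 for TR-FRET Assay Max Response: 665/615 nm ratio relative to signal without ursolic acid or compound set at 100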
Assay type: biochemical
Method: Assay procedures and results are described below.
HIS-tagged RORγ-LBD protein was expressed in SF9 cells using a baculovirus expression system. The lysate was diluted in assay buffer (50 mM Tris pH 7.0, 50 mM KCl, 1 mM EDTA, 0.1 mM DTT, 0.01% BSA) to obtain RORγ-LBD final concentration of ˜3 nM in a 384-well assay plate (need to titrate for each batch of protein).
A stock of biotinylated-LXXLL peptide from coactivator SRC1 (Biotin-[…]) was prepared in assay buffer and added to each well (200 nM final concentration). […] RORγ antagonist ursolic acid was also included at a final concentration of 2 μM. Compounds were diluted in DMSO and further diluted in assay buffer with a final DMSO concentration at 1%.

Compound	EC50 [nM]	TR-FRET Assay Max Response
CC(C)(C[C@@H]1CN(S(=O)(=O)c2cccc(C(F)(F)F)c2)c2cc(-c3cc(F)ccc3F)ccc2O1)NC(=O)C(C)(C)O [Compound 30DD, (R)-N-(1-(6-(2,5-difluoro-phenyl)-4-((3-(trifluoromethyl)-phenyl)sulfonyl)-3,4-dihydro-2H-benzo[b][1,4]oxazin-2-yl)-2-methylpropan-2-yl)-2-hydroxy-2-methylpropanamide]	< 500	*** (The symbol “***” indicates a value in the range of greater than 150 to 200)
O=C(O)CC[C@H]1CN(S(=O)(=O)c2cccc(C(F)(F)F)c2)c2cc(-c3ccc(F)c(F)c3)ccc2O1 [Compound 2F, (S)-3-(6-(3,4-difluorophenyl)-4-((3-(trifluoromethyl)phenyl)-sulfonyl)-3,4-dihydro-2H-benzo[b][1,4]oxazin-2-yl)propanoic acid]	< 500	** (The symbol “**” indicates a value in the range of greater than 90 to 150)
CC(C)(C(=O)NC[C@H]1CN(S(=O)(=O)c2cccc(C(F)(F)F)c2)c2cc(-c3cccc(F)c3Cl)ccc2O1)C(F)(F)F [Compound 30BJ, (S)-N-((6-(2-chloro-3-fluoro-phenyl)-4-((3-(trifluoromethyl)-phenyl)sulfonyl)-3,4-dihydro-2H-benzo[b][1,4]oxazin-2-yl)methyl)-3,3,3-trifluoro-2,2-dimethylpropanamide]	500 to 5000	*** (The symbol “***” indicates a value in the range of greater than 150 to 200)
O=C(O)CC[C@H]1CN(S(=O)(=O)c2cccc(C(F)(F)F)c2)c2cc(-c3ccnc(Cl)n3)ccc2O1 [Compound 4AX, (S)-3-(6-(2-chloropyrimidin-4-yl)-4-((3-(trifluoromethyl)-phenyl)sulfonyl)-3,4-dihydro-2H-benzo[b][1,4]oxazin-2-yl)propanoic acid]	500 to 5000	** (The symbol “**” indicates a value in the range of greater than 90 to 150)
O=C(O)CC[C@H]1CN(S(=O)(=O)c2cccc(C(F)(F)F)c2)c2cc(-c3cccc(C(F)(F)F)n3)c(Cl)cc2O1 [Compound 22F, (S)-3-(7-chloro-4-((3-(trifluoromethyl)phenyl)sulfonyl)-6-(6-(trifluoromethyl)pyridin-2-yl)-3,4-dihydro-2H-benzo[b][1,4]-oxazin-2-yl)propanoic acid]	> 10000	
CN(C)c1nccc(-c2ccc3c(c2)N(S(=O)(=O)c2cccc(C(F)(F)F)c2)C[C@H](CCC(=O)O)O3)n1 [Compound 4AV, (S)-3-(6-(2-(dimethylamino)-pyrimidin-4-yl)-4-((3-(trifluoromethyl)phenyl)-sulfonyl)-3,4-dihydro-2H-benzo[b][1,4]oxazin-2-yl)propanoic acid]	500 to 5000	*** (The symbol “***” indicates a value in the range of greater than 150 to 200)
Cc1coc(-c2ccc3c(c2)N(S(=O)(=O)c2cccc(C(F)(F)F)c2)C[C@H](CCC(=O)O)O3)n1 [Compound 25, (S)-3-(6-(4-methyloxazol-2-yl)-4-((3-(trifluoromethyl)phenyl)sulfonyl)-3,4-dihydro-2H-benzo[b][1,4]oxazin-2-yl)propanoic acid]	500 to 5000	** (The symbol “**” indicates a value in the range of greater than 90 to 150)
O=C(O)[C@H]1C[C@H]([C@H]2CN(S(=O)(=O)c3cccc(C(F)(F)F)c3)c3cc(-c4cccc(C(F)(F)F)n4)ccc3O2)C1 [Compound 72, (1S,3r)-3-((S)-4-((3-(trifluoromethyl)phenyl)sulfonyl)-6-(6-(trifluoromethyl)pyridin-2-yl)-3,4-dihydro-2H-benzo[b][1,4]oxazin-2-yl)cyclobutane-1-carboxylic acid]	< 500	** (The symbol “**” indicates a value in the range of greater than 90 to 150)
CN(C)c1cc(C(F)(F)F)cc(-c2ccc3c(c2)N(S(=O)(=O)c2cccc(C(F)(F)F)c2)C[C@H](CCC(=O)O)O3)n1 [Compound 4AT, (S)-3-(6-(6-(dimethylamino)-4-(trifluoromethyl)pyridin-2-yl)-4-((3-(trifluoromethyl)phenyl)-sulfonyl)-3,4-dihydro-2H-benzo[b][1,4]oxazin-2-yl)propanoic acid]	500 to 5000	*** (The symbol “***” indicates a value in the range of greater than 150 to 200)
O=C(O)CC[C@H]1CN(S(=O)(=O)c2cccc(C(F)(F)F)c2)c2cc(-c3cccc(-c4ccccc4)n3)ccc2O1 [Compound 4AI, (S)-3-(6-(6-phenylpyridin-2-yl)-4-((3-(trifluoromethyl)-phenyl)sulfonyl)-3,4-dihydro-2H-benzo[b][1,4]oxazin-2-yl)propanoic acid]	< 500	** (The symbol “**” indicates a value in the range of greater than 90 to 150)

The next lines start with results.

EC50 [nM]	Compound	TR-FRET Assay Max Response
< 500	C[C@@H](C[C@H]1CN(S(=O)(=O)c2cccc(C(F)(F)F)c2)c2cc(-c3cccc(C(F)(F)F)n3)ccc2O1)C(=O)O [Compound 46T, (S)-2-methyl-3-((S)-4-((3-(trifluoromethyl)phenyl)sulfonyl)-6-(6-(trifluoromethyl)pyridin-2-yl)-3,4-dihydro-2H-benzo[b][1,4]-oxazin-2-yl)propanoic acid]	*** (The symbol “***” indicates a value in the range of greater than 150 to 200)
< 500	C[C@H](C[C@H]1CN(S(=O)(=O)c2cccc(C(F)(F)F)c2)c2cc(-c3cccc(C(F)(F)F)c3)ccc2O1)C(=O)O [Compound 46K, (R)-2-methyl-3-((S)-6-(3-(trifluoromethyl)phenyl)-4-((3-(trifluoromethyl)phenyl)sulfonyl)-3,4-dihydro-2H-benzo[b][1,4]-oxazin-2-yl)propanoic acid]	*** (The symbol “***” indicates a value in the range of greater than 150 to 200)
< 500	C[C@H](C[C@H]1CN(S(=O)(=O)c2cccc(C(F)(F)F)c2)c2cc(-c3cc(F)cc(F)c3Cl)cc(F)c2O1)C(=O)O [Compound 46H, (R)-3-((S)-6-(2-chloro-3,5-difluorophenyl)-8-fluoro-4-((3-(trifluoromethyl)phenyl)sulfonyl)-3,4-dihydro-2H-benzo[b][1,4]-oxazin-2-yl)-2-methylpropanoic acid]	*** (The symbol “***” indicates a value in the range of greater than 150 to 200)
< 500	C[C@@H](C[C@H]1CN(S(=O)(=O)c2cccc(C(F)(F)F)c2)c2cc(-c3cc(F)cc(F)c3Cl)cc(F)c2O1)C(=O)O [Compound 46I, (S)-3-((S)-6-(2-chloro-3,5-difluorophenyl)-8-fluoro-4-((3-(trifluoromethyl)phenyl)sulfonyl)-3,4-dihydro-2H-benzo[b][1,4]-oxazin-2-yl)-2-methylpropanoic acid]	*** (The symbol “***” indicates a value in the range of greater than 150 to 200)
< 500	CC(=O)NC1(C[C@H]2CN(S(=O)(=O)c3cccc(C(F)(F)F)c3)c3cc(-c4cc(F)cc(OC(F)F)c4)ccc3O2)CCOCC1 [Compound 78I, (S)-N-(4-((6-(3-(difluoro-methoxy)-5-fluorophenyl)-4-((3-(trifluoromethyl)phenyl)sulfonyl)-3,4-dihydro-2H-benzo[b][1,4]-oxazin-2-yl)methyl)tetrahydro-2H-pyran-4-yl)acetamide]	*** (The symbol “***” indicates a value in the range of greater than 150 to 200)
< 500	O=C1CC[C@](C[C@H]2CN(S(=O)(=O)c3cccc(C(F)(F)F)c3)c3cc(-c4cc(F)cc(OC(F)F)c4)ccc3O2)(C(=O)O)N1 [Compound 77D, (S)-2-(((S)-6-(3-(difluoro-methoxy)-5-fluorophenyl)-4-((3-(trifluoromethyl)phenyl)sulfonyl)-3,4-dihydro-2H-benzo[b][1,4]-oxazin-2-yl)methyl)-5-oxopyrrolidine-2-carboxylic acid]	** (The symbol “**” indicates a value in the range of greater than 90 to 150)
< 500	CC(C)(C[C@H]1CN(S(=O)(=O)c2cccc(C(F)(F)F)c2)c2cc(-c3cccc(OC(F)F)n3)ccc2O1)C(=O)O [Compound 32AM, (S)-3-(6-(6-(difluoromethoxy)-pyridin-2-yl)-4-((3-(trifluoro-methyl)phenyl)sulfonyl)-3,4-dihydro-2H-benzo[b][1,4]oxazin-2-yl)-2,2-dimethylpropanoic acid]	* (The symbol “*” indicates a value in the range of 25 to 90)
< 500	O=C1CC[C@@](C[C@H]2CN(S(=O)(=O)c3cccc(C(F)(F)F)c3)c3cc(-c4cc(F)cc(OC(F)F)c4)ccc3O2)(C(=O)O)N1 [Compound 77C, (R)-2-(((S)-6-(3-(difluoro-methoxy)-5-fluorophenyl)-4-((3-(trifluoromethyl)phenyl)sulfonyl)-3,4-dihydro-2H-benzo[b][1,4]-oxazin-2-yl)methyl)-5-oxopyrrolidine-2-carboxylic acid]	** (The symbol “**” indicates a value in the range of greater than 90 to 150)
